Test results: article PMC5522084, “Eg5 inhibitor YL001 induces mitotic arrest and inhibits tumor proliferation” (Oncotarget, 2017)

Key:
[1] = target: T1, Eg5 motor domain (Homo sapiens, UniProt P52732); assay: SPR assay (Biacore T200); assay type: binding; settings: for Binding Level (RU): SPR screening
T1 sequence (P52732 18-359 limits assumed): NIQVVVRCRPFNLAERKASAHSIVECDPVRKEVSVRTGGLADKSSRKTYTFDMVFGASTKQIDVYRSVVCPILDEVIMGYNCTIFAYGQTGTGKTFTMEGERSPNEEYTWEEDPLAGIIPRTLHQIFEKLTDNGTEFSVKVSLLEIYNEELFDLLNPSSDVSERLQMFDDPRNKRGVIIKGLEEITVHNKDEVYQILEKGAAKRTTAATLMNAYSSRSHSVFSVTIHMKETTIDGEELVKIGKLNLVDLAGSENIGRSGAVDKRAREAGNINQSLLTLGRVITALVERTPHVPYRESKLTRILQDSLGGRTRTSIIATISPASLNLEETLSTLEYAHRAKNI
Protocol: Interactions of the Eg5 motor domain and compounds of interest were analyzed using the Biacore T200 system (GE Healthcare, Uppsala, Sweden) at 25°C. Eg5 motor protein obtained as previously described (51) was immobilized on a sensor chip (CM5) using an amine coupling kit (GE Healthcare, Buckinghamshire, UK). […] For binding studies, analytes were applied at corresponding concentrations in running buffer at a flow rate of 30 μL/minute with a contact time of 60 seconds and a dissociation time of 60 seconds. Chip platforms were washed with running buffer and 50% DMSO. Data were analyzed with Biacore evaluation software (T200 Version 1.0) by curve fitting using a steady state 1:1 binding model and a kinetic model.

[2] = test system: human cancer cell lines; assay: Antiproliferation screening of 23 selected compounds (Alamar Blue); assay type: cell-based; settings: proliferation inhibition
Protocol: (§1) Cytotoxic activities of the compounds of interest were investigated with human cancer cell lines using the Alamar Blue assay. Cells (5 × 10^3 cells/well) were seeded into 96-well plates (Corning, 3603). Various sample concentrations (compounds of interest) were added to each well in duplicate, and incubated at 37°C with 5% CO2 for two days such that cells were in the exponential growth phase at the time of drug addition. Ten microliters of the Alamar Blue Solution (Invitrogen, Alamar Blue) were added to each well and incubated at 37°C for up to 2 hours in a humidified, 5% CO2 atmosphere. After incubation, florescence was measured using a microplate reader (Tecan) at an excitation wavelength of 540 nm and emission of 590 nm. Each inhibitory concentration was measured in triplicate, and averaged data points ± SD are shown. Statistical analysis was carried out with GraphPad Prism 5 and the fifty-percent effective concentration is expressed as EC50.

[3] = target: Eg5 (Homo sapiens, UniProt P52732); assay: Inhibition of Eg5 ATPase activity; assay type: biochemical; settings: read-out: Enzyme EC50
Eg5, sequence (P52732 whole entry): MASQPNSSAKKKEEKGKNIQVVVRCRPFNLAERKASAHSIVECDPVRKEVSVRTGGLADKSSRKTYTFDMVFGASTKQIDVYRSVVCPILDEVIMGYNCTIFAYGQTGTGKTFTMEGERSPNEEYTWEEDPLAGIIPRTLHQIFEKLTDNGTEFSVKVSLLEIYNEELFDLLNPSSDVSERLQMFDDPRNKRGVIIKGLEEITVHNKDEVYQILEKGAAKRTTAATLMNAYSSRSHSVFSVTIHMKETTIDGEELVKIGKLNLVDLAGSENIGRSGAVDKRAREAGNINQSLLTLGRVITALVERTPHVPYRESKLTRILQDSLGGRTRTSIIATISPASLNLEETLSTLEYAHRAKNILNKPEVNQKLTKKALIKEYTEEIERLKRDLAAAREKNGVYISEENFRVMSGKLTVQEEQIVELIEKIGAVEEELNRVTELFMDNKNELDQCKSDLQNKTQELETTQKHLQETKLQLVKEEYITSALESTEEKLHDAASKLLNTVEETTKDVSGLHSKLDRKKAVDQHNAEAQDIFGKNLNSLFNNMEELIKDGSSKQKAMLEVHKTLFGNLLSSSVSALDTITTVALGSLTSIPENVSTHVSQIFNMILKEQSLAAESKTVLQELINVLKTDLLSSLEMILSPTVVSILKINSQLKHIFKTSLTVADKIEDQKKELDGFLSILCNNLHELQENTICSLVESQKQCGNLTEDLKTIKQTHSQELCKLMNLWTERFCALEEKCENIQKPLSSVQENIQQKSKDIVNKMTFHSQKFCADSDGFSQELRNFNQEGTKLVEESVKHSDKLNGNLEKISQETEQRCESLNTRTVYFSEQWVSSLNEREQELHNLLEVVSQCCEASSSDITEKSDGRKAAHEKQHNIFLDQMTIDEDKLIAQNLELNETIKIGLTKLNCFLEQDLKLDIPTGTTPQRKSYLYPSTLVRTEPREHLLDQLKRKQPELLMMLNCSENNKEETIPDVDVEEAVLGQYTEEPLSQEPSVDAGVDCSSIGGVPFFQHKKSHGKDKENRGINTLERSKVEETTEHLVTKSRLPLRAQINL
Protocol: All experiments were performed as previously described. Data were analyzed using GraphPad Prism 5 and Microsoft Excel to obtain EC50 values. […] Each inhibitory concentration was measured in triplicate, and averaged data points ± SD are shown.

[4] = test system: HeLa; assay: Antiproliferation assay (Alamar Blue), HeLa; assay type: cell-based; settings: Homo sapiens, 48 h, HeLa cell line, two days
Protocol: as §1

[5] = test system: HeLa cells; assay: Colony formation; assay type: cell-based; settings: Homo sapiens, exposed 24 hours, cultured 10 days
Protocol: HeLa cells (5 × 10^2 cells/well) were seeded into 6-well plates and were treated with a series of gradient concentrations of YL001 for 24 hours, followed by washing and continual culture for 10 days. DMSO was used as a negative control, and STLC was used as a positive control. Cells were fixed with ethanol for more than 30 minutes and dyed with crystal violet for more than 30 minutes. Clones were counted with OpenCFU [54].

SMILES	Binding Level (RU) [1] [RU]	Inhibition (50 μM) [2]	also measured
CCOC(=O)C1C2c3ccccc3C(c3ccccc32)C1C(=O)OCC (stereo not drawn) [AE-842/33003047]	14.6	–30.66%	
OC(COCc1ccc2c(c1)OCO2)CN1CCN(C(c2ccccc2)c2ccccc2)CC1 (stereo not drawn) [AF-399/14739190]	36.9	22.02%	
O=[N+]([O-])c1ccc(COc2ccccc2C2N(Cc3ccccc3)CCN2Cc2ccccc2)cc1 [AG-205/14740101]	27.7	0.87%	
Cc1ccc(-n2nnnc2/C(=C/N(C)C)C(=O)c2cccc(C(F)(F)F)c2)cc1 [AG-401/37257005]	18.8	95.06%	
COC(=O)CN1C(c2ccccc2)=Nc2ccc(Br)cc2C1c1ccccc1 (stereo not drawn) [AG-690/36921098]	61.1	21.81%	
COC(=O)C1NC(c2ccc(F)cc2)(c2ccc(F)cc2)C2C(=O)N(c3ccc(Cl)cc3)C(=O)C12 (stereo not drawn) [AH-487/42271989]	31.9	41.63%	
N#CC1=C(N)Oc2n[nH]c(-c3cccc4ccccc34)c2C1c1cccc(O)c1 (stereo not drawn) [AJ-292/15089069]	100.1	58.97%	
NC1=C(C(=O)OCc2ccccc2)C2(C(=O)Nc3ccc(Br)cc32)C2=C(CCCC2=O)O1 (stereo not drawn) [AK-777/10805059]	20.7	31.51%	
CC(=O)C1=NN(c2ccc(Cl)cc2)C(c2ccc3c(c2)OCO3)N1c1ccccc1 (stereo not drawn) [AK-778/11811129]	59.8	9.38%	
CC1(C)CC(=O)C2=C(C1)OC(N)=C(C#N)C21C(=O)N(Cc2ccccc2Cl)c2ccccc21 (stereo not drawn) [AM-807/14957480]	16.3	30.76%	
Cc1ccc(N2C(=N)/C(=C(/O)c3ccccc3)C(c3ccc([N+](=O)[O-])cc3)C3=C2CCCC3=O)cc1Cl (stereo not drawn) [AN-919/14545008]	57.7	26.79%	
Cc1ccc(C2C3=C(CCCC3=O)N(c3ccc(Br)cc3)C(=N)/C2=C(/O)c2ccccc2)cc1 (stereo not drawn) [AN-919/14547113]	1.9	21.56%	
Cc1ccc(N=C2S/C(=C/c3ccccc3OCC(=O)N3CCOCC3)C(=O)N2Cc2ccccc2)cc1 [AO-081/41364431]	56.4	29.79%	
CCc1cc(C(c2ccccc2F)N2CCOCC2)c(NC(=O)c2ccccc2)s1 (stereo not drawn) [AP-906/42853823]	60.7	19.16%	
COc1ccc(C(OCC2OC(n3cnc4c(N)ncnc43)C(O)C2O)(c2ccccc2)c2ccccc2)cc1 (stereo not drawn) [Compound 7170]			EC50 [3]: 18000 nM; Kd ([1]; SPR Biacore T200, 25°C): 1130 nM; EC50 [4]: 13300 ± 1320 nM
N[C@@H](CSC(c1ccccc1)(c1ccccc1)c1ccccc1)C(=O)O [STLC, S-Trityl-L-cysteine, reference compound]			EC50 [4]: 1460 ± 60 nM; IC50 [5]: 1250 nM

Further lines, with some results ahead:

Binding Level (RU) [1] [RU]	SMILES	Inhibition (50 μM) [2]	also measured
3.8	CC(=O)Nc1sc2c(c1C(c1ccc(OC(F)F)cc1)N1CCOCC1)CCCC2 (stereo not drawn) [AF-399/41981012]	14.85%	
44.5	Cc1ccc(N2C(=O)CSC23C(=O)N(CN2CCN(c4ccccc4)CC2)c2ccccc23)cc1C (stereo not drawn) [AG-205/13460017]	30.78%	
3.4	CN(C)CCN1C(=O)C(=O)/C(=C(/O)c2ccccc2)C1c1ccc2c(c1)OCO2 (stereo not drawn) [AG-205/13765047]	–18.48%	
32.8	CCOC(=O)C1=CN2C(C=C1)C(C(=C(C#N)C#N)C1CC1)C(c1ccccc1)C2C(=O)c1ccccc1 (stereo not drawn) [AG-205/33162003]	60.89%	
8.7	Cn1cc(C2C(=O)NC(c3ccccc3)=NN2C(=O)c2ccccc2)c2ccccc21 (stereo not drawn) [AG-227/37394007]	97.78%	
7.4	CC(=O)C1=NN(c2ccc(C)cc2)C(c2c[nH]c3ccccc23)N1c1ccc(C)cc1 (stereo not drawn) [AN-465/13570058]	98.24%	
69.6	N=C1/C(=C(/O)c2ccccc2)C(c2ccccc2)C2=C(CCCC2=O)N1c1ccc(Br)cc1 (stereo not drawn) [AN-919/14547075]	27.56%	
56.6	Cc1ccc(/C(O)=C2\C(=N)N(c3ccccc3)C3=C(C(=O)CCC3)C2c2ccccc2)cc1 (stereo not drawn) [AN-919/14547078]	30.07%	
2.3	Cc1ccc(SC(c2ccccc2)C(Cn2cncn2)C(=O)c2ccc(Br)cc2)cc1 (stereo not drawn) [AQ-714/41675002]	32.65%	
